In brackets after ≈: the same amount, converted by molar mass.

We go through seven compounds from ChEMBL document CHEMBL1131216, “Anhydrolide macrolides. 2. Synthesis and antibacterial activity of 2,3-anhydro-6-O-methyl 11,12-carbazate erythromycin A analogues” (1998).

What all share (assay type): functional
Test [1] has as its system Streptococcus pyogenes. The test can be described thus: In vitro antibacterial activity of 930 strain of Gram positive bacteria Streptococcus pyogenes.
Test [2] concerns Streptococcus pneumoniae. In words: In vitro antibacterial activity of 5979 strain of Gram positive bacteria Streptococcus pneumoniae.
Test [3] deals with Streptococcus pyogenes. The test can be described thus: In vitro antibacterial activity of EES61 strain of Gram positive bacteria Streptococcus pyogenes.
The test system of test [4] is Streptococcus pyogenes. The test can be described thus: In vitro antibacterial activity of PIU2584 strain of Gram positive bacteria Streptococcus pyogenes.
Test [5] deals with Streptococcus pneumoniae. In words: In vitro antibacterial activity of 5649 strain of Gram positive bacteria Streptococcus pneumoniae.
Test [6] has as its system Staphylococcus aureus. The test can be described thus: In vitro antibacterial activity of A-5278 strain of Gram positive bacteria Staphylococcus aureus.
In another test the test system is Haemophilus influenzae. In words: In vitro antibacterial activity of DILL strain of Gram negative bacteria Haemophilus influenzae.
Test [7] relates to Streptococcus pneumoniae. The test can be described thus: In vitro antibacterial activity of ATCC 6303 strain of Gram positive bacteria Streptococcus pneumoniae.
The subject of test [8] is Staphylococcus aureus. In words: In vitro antibacterial activity of 6538P strain of Gram positive bacteria Staphylococcus aureus.
Test [9] concerns Staphylococcus aureus. In words: In vitro antibacterial activity of A5177 strain of Gram positive bacteria Staphylococcus aureus.

Regarding `CC[C@H]1OC(=O)/C(C)=C/[C@H](C)[C@@H](O[C@@H]2O[C@H](C)C[C@H](N(C)C)[C@H]2O)[C@@](C)(OC)C[C@@H](C)C(=O)[C@H](C)[C@H]2N(NCc3ccc(SC)cc3)C(=O)O[C@]12C`, the MIC is 64 µg/mL (≈ 85.6 µM) in the test with Streptococcus pyogenes [1]; 64 µg/mL (≈ 85.6 µM) against Streptococcus pneumoniae [2]; 0.03 µg/mL (≈ 0.0401 µM) against Streptococcus pyogenes [3]; 1 µg/mL (≈ 1.34 µM) with Streptococcus pyogenes [4]; 0.5 µg/mL (≈ 0.668 µM) in the test with Streptococcus pneumoniae [5]; over 100 µg/mL in the test with Staphylococcus aureus [6]. In addition, the results for the MIC against Haemophilus influenzae, in the test on Streptococcus pneumoniae [7] and in the test on Staphylococcus aureus [8] were 8 µg/mL (≈ 10.7 µM), 0.03 µg/mL (≈ 0.0401 µM) and 0.39 µg/mL (≈ 0.521 µM), respectively.
Consider `CC[C@H]1OC(=O)/C(C)=C/[C@H](C)[C@@H](O[C@@H]2O[C@H](C)C[C@H](N(C)C)[C@H]2O)[C@@](C)(OC)C[C@@H](C)C(=O)[C@@H](C)[C@H]2N(NCCCc3ccccc3)C(=O)O[C@]12C`, for which the MIC with Streptococcus pyogenes [1] turned out to be 8 µg/mL (≈ 11 µM); with Streptococcus pneumoniae [2] it was 16 µg/mL (≈ 21.9 µM); with Streptococcus pyogenes [3], 2 µg/mL (≈ 2.74 µM); in the test on Streptococcus pyogenes [4], 8 µg/mL (≈ 11 µM); in the test with Streptococcus pneumoniae [5], 8 µg/mL (≈ 11 µM); with Staphylococcus aureus [6], 25 µg/mL (≈ 34.2 µM). Besides, the values for the MIC in the test on Haemophilus influenzae, against Streptococcus pneumoniae [7] and in the test with Staphylococcus aureus [8] were over 128 µg/mL, 2 µg/mL (≈ 2.74 µM) and 12.5 µg/mL (≈ 17.1 µM), respectively.
On to `CC[C@H]1OC(=O)/C(C)=C/[C@H](C)[C@@H](O[C@@H]2O[C@H](C)C[C@H](N(C)C)[C@H]2O)[C@@](C)(OC)C[C@@H](C)C(=O)[C@H](C)[C@H]2N(NCc3cc([N+](=O)[O-])ccc3O)C(=O)O[C@]12C`, for which the MIC was over 128 µg/mL in the test with Streptococcus pyogenes [1]; over 128 µg/mL in the test on Streptococcus pneumoniae [2]; 0.015 µg/mL (≈ 0.0197 µM) in the test with Streptococcus pyogenes [3]; 0.25 µg/mL (≈ 0.328 µM) in the test with Streptococcus pyogenes [4]; 0.25 µg/mL (≈ 0.328 µM) against Streptococcus pneumoniae [5]; over 100 µg/mL against Staphylococcus aureus [6]. Also, the MIC worked out at 4 µg/mL (≈ 5.24 µM) in the test with Haemophilus influenzae, 0.03 µg/mL (≈ 0.0393 µM) in the test with Streptococcus pneumoniae [7] and 0.1 µg/mL (≈ 0.131 µM) against Staphylococcus aureus [8].
`CC[C@H]1OC(=O)/C(C)=C/[C@H](C)[C@@H](O[C@@H]2O[C@H](C)C[C@H](N(C)C)[C@H]2O)[C@@](C)(OC)C[C@@H](C)C(=O)[C@H](C)[C@H]2N(NCCCc3ccc(N)cc3)C(=O)O[C@]12C`: the MIC in the test on Streptococcus pyogenes [1] was over 128 µg/mL; against Streptococcus pneumoniae [2], over 128 µg/mL; with Streptococcus pyogenes [3], 0.03 µg/mL (≈ 0.0403 µM); in the test with Streptococcus pyogenes [4], 1 µg/mL (≈ 1.34 µM); against Streptococcus pneumoniae [5], 1 µg/mL (≈ 1.34 µM); against Staphylococcus aureus [6], over 100 µg/mL. Besides, the MIC with Haemophilus influenzae was 4 µg/mL (≈ 5.37 µM); in the test on Streptococcus pneumoniae [7] it was 0.03 µg/mL (≈ 0.0403 µM); in the test on Staphylococcus aureus [8], 0.39 µg/mL (≈ 0.524 µM).
Take `CC[C@H]1OC(=O)/C(C)=C/[C@H](C)[C@@H](O[C@@H]2O[C@H](C)C[C@H](N(C)C)[C@H]2O)[C@@](C)(OC)C[C@@H](C)C(=O)[C@H](C)[C@H]2N(NCCCc3cccc(N)c3)C(=O)O[C@]12C`: the MIC against Streptococcus pyogenes [1] is over 128 µg/mL; against Streptococcus pneumoniae [2], over 128 µg/mL; with Streptococcus pyogenes [3], 0.03 µg/mL (≈ 0.0403 µM); against Streptococcus pyogenes [4], 1 µg/mL (≈ 1.34 µM); in the test with Staphylococcus aureus [6], over 100 µg/mL; against Haemophilus influenzae, 4 µg/mL (≈ 5.37 µM). Besides, the MIC with Streptococcus pneumoniae [7] came out at 0.03 µg/mL (≈ 0.0403 µM); in the test with Staphylococcus aureus [8], 0.2 µg/mL (≈ 0.268 µM); in the test on Staphylococcus aureus [9], 0.2 µg/mL (≈ 0.268 µM).
For `CC[C@H]1OC(=O)/C(C)=C/[C@H](C)[C@@H](O[C@@H]2O[C@H](C)C[C@H](N(C)C)[C@H]2O)[C@@](C)(OC)C[C@@H](C)C(=O)[C@H](C)[C@H]2N(NCCCn3cnc(-c4ccccc4)c3)C(=O)O[C@]12C`, the MIC against Streptococcus pyogenes [1] was 128 µg/mL (≈ 161 µM); with Streptococcus pneumoniae [2], over 128 µg/mL; against Streptococcus pyogenes [3] it was 0.03 µg/mL (≈ 0.0377 µM); in the test on Streptococcus pyogenes [4], 1 µg/mL (≈ 1.26 µM); with Streptococcus pneumoniae [5] it was 0.5 µg/mL (≈ 0.628 µM); in the test with Staphylococcus aureus [6] it was over 100 µg/mL. For the same compound, the MIC came out at 8 µg/mL (≈ 10.1 µM) in the test on Haemophilus influenzae, 0.03 µg/mL (≈ 0.0377 µM) against Streptococcus pneumoniae [7] and 0.2 µg/mL (≈ 0.251 µM) with Staphylococcus aureus [8].
In the case of `CC[C@H]1OC(=O)/C(C)=C/[C@H](C)[C@@H](O[C@@H]2O[C@H](C)C[C@H](N(C)C)[C@H]2O)[C@@](C)(OC)C[C@@H](C)C(=O)[C@H](C)[C@H]2N(NCc3c(O)ccc4ccccc34)C(=O)O[C@]12C`, the MIC in the test with Streptococcus pyogenes [1] amounted to 32 µg/mL (≈ 41.7 µM); with Streptococcus pneumoniae [2] it was 32 µg/mL (≈ 41.7 µM); in the test with Streptococcus pyogenes [3] it was 0.06 µg/mL (≈ 0.0781 µM); in the test with Streptococcus pyogenes [4], 0.5 µg/mL (≈ 0.651 µM); in the test with Streptococcus pneumoniae [5], 0.25 µg/mL (≈ 0.326 µM); in the test on Staphylococcus aureus [6], 100 µg/mL (≈ 130 µM). Moreover, the MIC was 8 µg/mL (≈ 10.4 µM) against Haemophilus influenzae, 0.03 µg/mL (≈ 0.0391 µM) in the test with Streptococcus pneumoniae [7] and 0.2 µg/mL (≈ 0.26 µM) with Staphylococcus aureus [8].
